Patent US7261906B2, “Anti-cancer therapy agent of arsenic hexoxide (As4O6) of a natural chemical substance and its pharmaceutical composition” (priority 1998, dated 2007)
“And” between values parts separate entries of the source, which are not always exact repeats. Equal values may be shown once. Marks after values point to notes of the source that are not given here.

Assays:
B16-BL6 melanoma = test: Neovascularization and tumor size after intradermal melanoma injection; type: in vivo, C57BL/6 mice; details: one milligram orally three days after tumor injection
Protocol: The in vivo mechanism of anticancer effect of HD-2 was studied in mice. After suspending 4×10^5 cells of B16-BL6 melanoma in 50% PBS, they were injected intradermally into 2 sites on the back of 6- to 7-week old C57BL/6 mice. Three days after the tumor injection, one milligram of HD-2 was given orally and size of inoculated melanoma and number of blood vessels at and around tumor sites were measured. Control group was treated with oral administration of PBS.

B16-BL6 melanoma cells = test: Inhibitory effect of orally-administered HD-2 on cancer metastasis (lung); type: in vivo, mice
Source text: B16-BL6 melanoma cells or colon26-M3.1 carcinoma cells were inoculated into mice and number of metastatic tumor masses appearing in lungs was counted. […] The peak activity was observed a: 1-mg dose with very high anticancer efficacy (86%). […] This indicated oral administration of HD-2 was quite effective for treatment of established cancer.

[1] = Subacute toxicity, oral administration once a day for 4 weeks; type: in vivo, Rats (Sprague Dawley strain); details: for ALT / ALB / AST / BUN / CHOL / CREAT / Ca / GLU / TB / TG / TP: female rats
Protocol: The subacute toxicity of oral administration of HD-2 was evaluated according to toxicity assessment criteria described in Article 96-8 of Notice on rood and Drug Safety (Apr. 16, 1994). Rats (Sprague Dawley . strain) were used for experiments, as was the case for acute toxicity experiments. […]
Following items were observed during the period of study. • 1) General symptoms: General symptoms, such as anorchism, salivation, diarrhea, vomiting, polyuria, anuria, and fecal change and the severity of these symptoms were evaluated once a day during the study period. • 2) Food consumption: Twice a week, the amount of consumed food and the remaining amount were checked per cage. • 3) Water consumption: Twice a week, the amount of consumed water and the remaining amount were checked per cage. • 4) Weight: Weights were measured twice a week until the end of the study. • 5) Urinalysis: Urine samples were collected during study period from 5 randomly selected rats per study subgroup and appearance, volume, and colors were recorded. Using urinalysis kits (N-multistix of Amersham), pH, gravity, leukocyte, protein, ketone body, urobilinogen, glucose and blood urea nitrogen were measured. • 6) Eye examination: Ophthalmoscopic examination of 5 randomly selected rats per study subgroup was performed to evaluate the external appearance, cornea, and:fundus of the eye. • 7) Hematological and biochemical analysis: Routine blood test was done to measure red blood cell count, white blood cell count, hemoglobin concentration, number of monocytes and lymphocytes, and blood coagulation time. Biochemical analysis of serum was done to measure the activity of […], aspartate transaminase, alkaline phosphate, and albumin. • 8) Size and weight of organs: For every animal studied, weight and size of major organs were measured relative to body weight. Measured organs included liver, kidney, spleen, heart, adrenal gland, brain, thyroid gland, ovary, and testis. • 9) Pathological examination: Organs were fixed in formalin after measurement of weight and size and fixed tissues were cut into […] slices using microtome (AO Rotate Microtome) and stained with hematoxylin and eosin for microscopic study.

[2] = test system: N-nitrosodiethylamine (NDEA)-induced tumors in lung and liver; test: Carcinogen-induced oncogenesis in liver and lung; type: in vivo, mouse (B6C3F1 strain); details: for incidence of NDEA-induced hepatic tumor (words): oral HD-2, FIG. 6
Protocol: To examine the inhibitory effect of HD-2 on carcinogen-induced oncogenesis, N-nitrosodiethylamine (NDEA) was injected as a carcinogen into peritoneal cavity of mouse (B6C3F1 strain) at a concentration of 90 mg per kg body weight to induce cancer. At 2, 4, 8, 16, and 32 weeks after carcinogen injection, […] of HD-2 was administered orally and the same amount of distilled water was injected into control group. Forty-two weeks after NDEA treatment, mice were sacrificed to measure the incidence and the size of tumors formed in lung and liver. […] The incidence of NDEA-induced hepatic tumor was above 90%, but following HD-2 administration, the incidence was lowered to 5 to 22%, despite of variation depending on the period of HD-2 administration. Thus HD-2 inhibited carcinogen-induced oncogenesis in liver by 78 to 95. […] In lung, the inhibitory effect of HD-2 on reducing carcinogen-induced oncogenesis was not so dramatic as in liver. However, if HD-2 was given at 4 weeks after NDEA injection, carcinogen-induced oncogenesis was inhibited by 30%.

Question: What does the source list for O1[As]2O[As]3O[As]1O[As](O2)O3 [HD-2, arsenic hexoxide (As4O6)]?
Answer: size of solid tumor mass (B16-BL6 melanoma): decreased significantly; number of new blood vessels at and around tumor sites (B16-BL6 melanoma; FIG. 5): tended to decrease; inhibitory rate (B16-BL6 melanoma cells; 0.1 mg oral administration +1): 38.5%; number of metastatic masses, mean ±SD (B16-BL6 melanoma cells; 0.1 mg oral administration +1): 75 ± 28; inhibitory rate (B16-BL6 melanoma cells; 0.1 mg oral administration +7): 41.4%; number of metastatic masses, mean ±SD (B16-BL6 melanoma cells; 0.1 mg oral administration +7): 95 ± 23; inhibitory rate (B16-BL6 melanoma cells; 1 mg oral administration +1): 86% and 86.1%; number of metastatic masses, mean ±SD (B16-BL6 melanoma cells; 1 mg oral administration +1): 17 ± 9; inhibitory rate (B16-BL6 melanoma cells; 1 mg oral administration +7): 70% and 70.4%; number of metastatic masses, mean ±SD (B16-BL6 melanoma cells; 1 mg oral administration +7): 48 ± 19; inhibitory rate (B16-BL6 melanoma cells; 10 mg oral administration +1): 63.1%; inhibitory rate (B16-BL6 melanoma cells; 10 mg oral administration +7): 66.1%; number of metastatic masses, mean ±SD (B16-BL6 melanoma cells; 10 mg oral administration +7): 55 ± 13; number of metastatic masses, mean ±SD (B16-BL6 melanoma cells; 10 mg oral administration +1 day after inoculation): 45 ± 25; anti-metastatic effect compared to the control group (B16-BL6 melanoma cells; oral administration, 0.1 to 10 mg): significant anti-metastatic effect; ALT ([1]; High 100 mg/kg/day oral): 29.67 μ/l; ALB ([1]; High 3.0 g/kg/day oral): 3.33 g/dL; AST ([1]; High 3.0 g/kg/day oral): 77.87* μ/l; BUN ([1]; High 3.0 g/kg/day oral): 13.13 mg/dL; CHOL ([1]; High 3.0 g/kg/day oral): 44.33 mg/dL; CREAT ([1]; High 3.0 g/kg/day oral): 0.47 mg/dL; Ca ([1]; High 3.0 g/kg/day oral): 8.73 mg/dL; GLU ([1]; High 3.0 g/kg/day oral): 63.03 mg/dL; TB ([1]; High 3.0 g/kg/day oral): 0.18 mg/dL; TG ([1]; High 3.0 g/kg/day oral): 62.33 mg/dL; TP ([1]; High 3.0 g/kg/day oral): 5.93 g/dL; ALB ([1]; Low 0.03 g/kg/day oral): 3.60 g/dL; ALT ([1]; Low 0.03 g/kg/day oral): 27.10 μ/l; AST ([1]; Low 0.03 g/kg/day oral): 70.10* μ/l; BUN ([1]; Low 0.03 g/kg/day oral): 11.43 mg/dL; CHOL ([1]; Low 0.03 g/kg/day oral): 42.33 mg/dL; CREAT ([1]; Low 0.03 g/kg/day oral): 0.40 mg/dL; Ca ([1]; Low 0.03 g/kg/day oral): 8.77 mg/dL; GLU ([1]; Low 0.03 g/kg/day oral): 67.70 mg/dL; TB ([1]; Low 0.03 g/kg/day oral): 0.14 mg/dL; TG ([1]; Low 0.03 g/kg/day oral): 50.00 mg/dL; TP ([1]; Low 0.03 g/kg/day oral): 6.27 g/dL; ALB ([1]; Medium 0.3 g/kg/day oral): 3.70 g/dL; ALT ([1]; Medium 0.3 g/kg/day oral): 27.00 μ/l; AST ([1]; Medium 0.3 g/kg/day oral): 87.53 μ/l; BUN ([1]; Medium 0.3 g/kg/day oral): 13.18 mg/dL; CHOL ([1]; Medium 0.3 g/kg/day oral): 40.50 mg/dL; CREAT ([1]; Medium 0.3 g/kg/day oral): 0.53 mg/dL; Ca ([1]; Medium 0.3 g/kg/day oral): 8.95 mg/dL; GLU ([1]; Medium 0.3 g/kg/day oral): 70.00 mg/dL; TB ([1]; Medium 0.3 g/kg/day oral): 0.16 mg/dL; TG ([1]; Medium 0.3 g/kg/day oral): 56.25 mg/dL; TP ([1]; Medium 0.3 g/kg/day oral): 6.53 g/dL; kidney pathology: hemosiderin in and atrophy of proximal tubular epithelium ([1]; high-dose group (100 mg/kg body weight), 4 weeks): observed to a slight degree; kidney pathology ([1]; medium-dose group, 4 weeks): no such pathology was observed; Hematological and biochemical study vs control groups ([1]; oral, once a day for 4 weeks): did not reveal any significant difference; clinical symptoms incl. changes in weight and consumption of food and water ([1]; oral, once a day for 4 weeks): no specific clinical symptom; urinalysis and eye examination ([1]; oral, once a day for 4 weeks): any significant abnormality was not observed; fatal cases ([1]; oral, once a day for 4 weeks, 1, 10, 100 mg per kg body weight): fatal cases were not observed; incidence of NDEA-induced lung cancer ([2]; FIG. 7): decreases the incidence of lung cancer; inhibition of carcinogen-induced oncogenesis in lung ([2]; HD-2 given at 4 weeks after NDEA injection): 30%; number of tumor masses in lung ([2]; HD-2 group, FIG. 7): about 2; spontaneous cancers of lung ([2]; oral HD-2): completely suppressed; spontaneous hepatoma ([2]; oral HD-2): inhibited spontaneous hepatoma completely; incidence of NDEA-induced hepatic tumor (words) [2]: effectively inhibited; incidence of NDEA-induced hepatic tumor (words) ([2]; listed as As4O6): decreases hepatoma incidence
